Results published in patent US8592422B2, “Bicyclic triazole and pyrazole lactams as allosteric modulators of mGluR5 receptors” (Vanderbilt University, priority 2010, dated 2013).
Where “and” joins values, the source holds several entries; their conditions need not be identical. Equal entries are not always repeated. Where two headings read alike, the source gives them in different places.

How the values were obtained:
[1] = target: T1, human mGluR5a receptor (Homo sapiens, UniProt P41594); assay: Cell-based functional Ca2+ mobilization assay (FDSS), potentiation of glutamate EC20 response; conditions: for EC50: HEK cells transfected with human mGluR5 (H10H or H12H), in presence of EC20 glutamate
T1 construct: cDNA subcloned into pcDNA3.1(-)
Method in brief: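 HEK293A cells stably expressing human mGluR5a (H10H or H12H clones), plated overnight in glutamate-glutamine-free medium, loaded with Ca2+-sensitive dye (e.g. Fluo-4) and read on FDSS.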

[2] = maximum % effect in concentration-response curve, as percent of response to maximally effective glutamate

T1 sequence (P41594 21-1180 isoform P41594-2 limits assumed): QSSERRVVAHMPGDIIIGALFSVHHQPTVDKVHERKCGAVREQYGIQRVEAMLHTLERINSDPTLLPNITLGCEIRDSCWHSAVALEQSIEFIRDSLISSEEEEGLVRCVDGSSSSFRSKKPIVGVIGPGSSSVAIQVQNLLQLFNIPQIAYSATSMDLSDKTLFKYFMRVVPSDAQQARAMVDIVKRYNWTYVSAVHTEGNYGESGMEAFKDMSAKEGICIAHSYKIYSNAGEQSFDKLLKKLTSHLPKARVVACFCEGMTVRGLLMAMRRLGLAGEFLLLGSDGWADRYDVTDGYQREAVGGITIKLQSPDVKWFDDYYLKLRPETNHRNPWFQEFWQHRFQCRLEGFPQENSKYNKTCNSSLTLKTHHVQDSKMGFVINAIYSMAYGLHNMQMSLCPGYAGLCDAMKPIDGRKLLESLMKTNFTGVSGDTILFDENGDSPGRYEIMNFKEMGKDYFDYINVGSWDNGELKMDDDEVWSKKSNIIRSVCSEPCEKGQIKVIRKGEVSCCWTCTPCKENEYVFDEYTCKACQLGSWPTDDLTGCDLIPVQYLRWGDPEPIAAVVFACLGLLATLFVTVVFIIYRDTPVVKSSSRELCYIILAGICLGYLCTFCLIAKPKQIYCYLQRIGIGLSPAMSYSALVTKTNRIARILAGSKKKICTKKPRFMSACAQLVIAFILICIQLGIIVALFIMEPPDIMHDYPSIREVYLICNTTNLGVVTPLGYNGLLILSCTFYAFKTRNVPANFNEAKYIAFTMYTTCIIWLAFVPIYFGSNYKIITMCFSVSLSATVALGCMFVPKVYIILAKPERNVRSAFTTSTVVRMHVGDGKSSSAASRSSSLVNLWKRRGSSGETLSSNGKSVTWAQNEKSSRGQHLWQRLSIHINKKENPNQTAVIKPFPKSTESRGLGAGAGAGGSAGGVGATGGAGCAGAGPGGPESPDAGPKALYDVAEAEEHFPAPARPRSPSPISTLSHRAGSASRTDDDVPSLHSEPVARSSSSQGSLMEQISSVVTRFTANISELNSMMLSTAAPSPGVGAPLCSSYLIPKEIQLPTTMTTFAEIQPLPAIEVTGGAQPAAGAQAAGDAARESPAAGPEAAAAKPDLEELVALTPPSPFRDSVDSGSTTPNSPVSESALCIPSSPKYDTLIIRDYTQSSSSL

Compound | melting point [°C] | EC50 ([1]; read-out: EC50) [nM] | EC50 ([1]; read-out: pEC50 (converted)) | Emax [1, 2] [%] | Emax (%) [1, 2] [%] | EC50 ([1]; EC50 (nM)) [nM]
CN(C)c1ccnc(N2CCn3nc(COc4ccccc4)cc3C2=O)c1 [Example 282] | 190.2 | 1100 |  | 64 |  | 
Cc1ccc(N2CCn3nc(COc4ccccc4)cc3C2=O)nn1 [Example 84] | 166.7 | > 10000 |  | 53 |  | 
O=C1c2cc(COc3ccccc3F)nn2CCN1c1ccc(F)cc1 [Example 190] | 183.3 |  |  | 66 |  | 145
COc1cc(N2C(=O)c3cc(COc4ccccc4)nn3C[C@H]2C)ccc1F [Example 143] | 135.8 | 81 |  | 62 |  | 
COc1ccc(N2CCn3nc(COc4ccccc4)cc3C2=O)c(C)n1 [Example 114] | 136.3 | 100 |  | 68 |  | 
O=C1c2cc(COc3cnccn3)nn2CCN1c1ccc(F)cc1 [Example 197] | 144.8 | > 10000 |  | 58 |  | 
CN(C)c1cncc(N2CCn3nc(COc4ccccc4)cc3C2=O)n1 [Example 280] | 215.1 | 355 |  | 70 |  | 
CN(C)c1ccc(N2CCn3nc(COc4ccccc4)cc3C2=O)nc1 [Example 287] | 164.8 | 603 |  | 67 |  | 
COc1ncccc1N1CCn2nc(COc3ccc(F)cc3)cc2C1=O [Example 229] | 267.4 | 380 |  | 66 |  | 
COc1nccnc1N1C(=O)c2cc(COc3ccccc3)nn2C[C@H]1C [Example 149] | 104.9 | 794 |  | 64 |  | 
O=C1c2cc(COc3ccccc3)nn2CCN1c1cccc(F)c1 [Example 8] | 155 |  |  | 81 |  | 132
Cc1ccc(N2CCn3nc(COc4ccccc4)cc3C2=O)c(C)n1 [Example 116] | > 300 | 310 |  | 62 |  | 

Further lines, with some results ahead:

melting point [°C] | EC50 ([1]; read-out: EC50) [nM] | EC50 ([1]; read-out: pEC50 (converted)) | Emax [1, 2] [%] | Emax (%) [1, 2] [%] | Compound | EC50 ([1]; EC50 (nM)) [nM]
143.7 | 30 | 36.3 nM and 29.5 nM | 76 | 69 | CN(C)c1cccc(N2CCn3nc(COc4ccccc4)cc3C2=O)n1 [Example 286] | 
212.7 | 3630 |  | 55 |  | O=C1c2cc(COc3ccc(O)cc3)nn2CCN1c1ccc(F)cn1 [Example 355] | 
> 300 | 1260 |  | 34 |  | Cc1cc(OCc2cc3n(n2)CCN(c2ccc(F)cc2)C3=O)ccn1 [Example 174] | 
140.9 | 54 |  | 67 |  | COc1cc(C)cc(N2CCn3nc(COc4ccccc4)cc3C2=O)n1 [Example 104] | 
270.1 | > 10000 |  | 51 |  | Cc1cccnc1OCc1cc2n(n1)CCN(c1ccc(F)cc1)C2=O [Example 185] | 
93.3 | 316 |  | 59 |  | Cc1nc(N2C(=O)c3cc(COc4ccccc4)nn3C[C@@H]2C)ccc1F [Example 138] | 
109.8 | 1510 |  | 67 |  | Cc1cccc(N2CCn3nc(COc4ccccn4)cc3C2=O)n1 [Example 206] | 
143.7 | 891 |  | 65 |  | Cc1cc(N2CCn3nc(COc4ccccc4)cc3C2=O)ncn1 [Example 83] | 
> 300 | 115 |  | 61 |  | O=C1c2cc(COc3cccc(F)c3)nn2CCN1c1ccc(F)cn1 [Example 178] | 
111.3 | 66 |  | 69 |  | O=C1c2cc(COc3ccccc3)nn2CCN1c1cccc(CF)n1 [Example 76] | 
158.1 | 120 |  | 69 |  | COc1nc(N2CCn3nc(COc4ccccc4)cc3C2=O)cnc1C [Example 102] | 
116.3 | 76 |  | 71 |  | Cc1cc(F)cc(N2CCn3nc(COc4ccccc4)cc3C2=O)c1 [Example 297] | 
